Assay results taken from US6969702B2, “Compounds and methods for increasing neurogenesis” (priority 2002, dated 2005).
Marks after values point to notes of the source that are not given here. Square brackets hold non-standard residues; d marks the D form. Peptide text beside a SMILES is read from it. d(pGlu) = O=C1CC[C@H](C(=O)O)N1

What was measured:
[1] = tested on: Adult neural stem cells; assay: Flow cytometry for early neuronal marker Doublecortin; settings: for % Doublecortin-positive cells / Fold Induction (Doublecortin-positive cells): Table 6; for % Doublecortin-positive cells: 4 days; for Fold Induction (Doublecortin-positive cells): vs EGF/FGF
[2] = tested on: cAMP activation in mouse adult neural stem cells; assay: cAMP detection (HitHunter EFC Cyclic AMP Chemiluminescence Assay); settings: for Fold Induction cAMP: vs vehicle
[3] = tested on: mouse adult neural stem cells; assay: ATP-assay: proliferation (ATP levels) of neurosphere-derived cells; settings: for Fold Induction ATP: vs vehicle
[4] = Table 2, 10 nM (cAMP concentration)
[5] = Table 2, 100 nM (cAMP concentration)
[6] = Table 2, 1 nM (cAMP concentration)

C[C@H](NC(=O)[C@@H](Cc1c[nH]c2ccccc12)NC(=O)[C@@H](N)Cc1c[nH]cn1)C(=O)N[C@@H](Cc1c[nH]c2ccccc12)C(=O)N[C@H](Cc1ccccc1)C(=O)N[C@@H](CCCCN)C(N)=O [(D-Trp7.Ala8.D-Phe10)-α-Melanocyte stimulating hormone F: 6-11/GHRP] (H-H[dW]AW[dF]K-NH2; N-terminus and C-terminus assumed)
% Doublecortin-positive cells ([1]; 100 nM): 5.3%

CSCC[C@@H]1NC(=O)[C@H](C)NC(=O)[C@H]([C@@H](C)O)NC(=O)CNC(=O)[C@H](CC(C)C)NC(=O)[C@H](CCCCN)NC(=O)[C@H](CCCNC(=N)N)NC(=O)[C@@H]2CSSC[C@@H]3NC(=O)[C@@H]4CCCN4C(=O)[C@H](C(C)C)NC(=O)[C@H](CCC(N)=O)NC(=O)[C@H](CCC(N)=O)NC(=O)CNC(=O)[C@H](CC(C)C)NC(=O)[C@@H]4CSSC[C@H](NC(=O)[C@H]([C@@H](C)O)NC(=O)[C@H](C)NC(=O)[C@H](CSSC[C@@H](C(=O)N[C@@H](CO)C(=O)N[C@@H](CCCNC(=N)N)C(=O)N[C@H](C(N)=O)[C@@H](C)O)NC(=O)[C@@H]5CCCN5C(=O)[C@H](CC(N)=O)NC1=O)NC(=O)[C@@H]1CCCN1C(=O)[C@H](CC(=O)O)NC(=O)[C@H](CSSC[C@H](N)C(=O)N[C@@H](C(C)C)C(=O)N[C@@H](CCCNC(=N)N)C(=O)N[C@@H](CC(C)C)C(=O)N[C@@H](Cc1c[nH]cn1)C(=O)N[C@@H](CCC(=O)O)C(=O)N[C@@H](CO)C(=O)N4)NC3=O)C(=O)N[C@@H](Cc1ccc(O)cc1)C(=O)N[C@H]1CSSC[C@H](NC(=O)[C@H](Cc3ccccc3)NC(=O)[C@H](C)NC(=O)[C@H](CC(N)=O)NC(=O)[C@H](Cc3ccccc3)NC(=O)[C@H](Cc3ccccc3)NC(=O)[C@H](CCCNC(=N)N)NC1=O)C(=O)N[C@@H](Cc1ccc(O)cc1)C(=O)N2 [Agouti Related Protein (87-132)-Amide (Human)]
% Doublecortin-positive cells ([1]; 100 nM): 2.4%
Fold Induction (Doublecortin-positive cells) ([1]; 100 nM): 0.9 fold
cAMP (pmol/well) [2, 4]: 0.5 ± 0.20 pmol/well
Fold Induction cAMP ([2]; Table 2, 10 nM): 2.4* fold
ATP (nM ATP/well) ([3]; Table 2, 10 nM, 4 days): 11.2 ± 1.7 nM ATP/well
Fold Induction ATP ([3]; Table 2, 10 nM, 4 days): 1.4* fold

CSCC[C@H](NC(=O)[C@H](Cc1ccc(O)cc1)NC(=O)[C@@H](N)CC(=O)O)C(=O)NCC(=O)N[C@@H](Cc1c[nH]c2ccccc12)C(=O)N[C@@H](CCSC)C(=O)N[C@@H](CC(=O)O)C(=O)N[C@@H](Cc1ccccc1)C(N)=O [Cholecystokinin Octapeptide [CCK(26-33)]]
% Doublecortin-positive cells ([1]; 100 nM): 3.2%
cAMP (pmol/well) [2, 5]: 0.27 ± 0.06 pmol/well
ATP (nM ATP/well) ([3]; Table 2, 10 nM, 4 days): 9.8 ± 0.4 nM ATP/well

NC(=O)CC[C@@H]1NC(=O)[C@H](Cc2ccccc2)NC(=O)[C@H](Cc2ccc(O)cc2)NC(=O)CCSSC[C@@H](C(=O)N2CCC[C@H]2C(=O)N[C@H](CCCN=C(N)N)C(=O)NCC(N)=O)NC(=O)[C@H](CC(N)=O)NC1=O [DDAVP]
% Doublecortin-positive cells ([1]; 100 nM): 4.6%
Fold Induction (Doublecortin-positive cells) ([1]; 100 nM): 1.8 fold
cAMP (pmol/well) [2, 4]: 0.27 ± 0.02 pmol/well
Fold Induction cAMP ([2]; Table 2, 10 nM): 1.9*** (10 nM) fold
ATP (nM ATP/well) ([3]; Table 2, 100 nM, 4 days): 11.5 ± 1.4 nM ATP/well
Fold Induction ATP ([3]; Table 2, 100 nM, 4 days): 1.5* fold

CC(C)C[C@H](NC(=O)[C@H](Cc1ccccc1)NC(=O)CNC(=O)[C@H](NC(=O)[C@@H](N)Cc1ccc(O)cc1)[C@H](C)O)C(=O)N[C@H](C(=O)O)[C@@H](C)O [DTLET]
% Doublecortin-positive cells ([1]; 100 nM): 4.1%
ATP (nM ATP/well) ([3]; Table 2, 10 nM, 4 days): 9.2 ± 0.9 nM ATP/well

C=C[C@@]1(C)CC(=O)[C@]2(O)[C@@]3(C)[C@@H](O)CCC(C)(C)[C@@H]3[C@H](O)[C@H](OC(C)=O)[C@@]2(C)O1 [Forskolin, forskolin]
fold induction at 10 µM ([1]; Mus musculus, Neural stem cell, read-out: Fold Induction (Doublecortin-positive cells)): 2.5
% Doublecortin-positive cells ([1]; 10 μM): 6.3%
fold induction at 1 µM ([2]; Mus musculus, Neural stem cell, 0.25 h, read-out: Fold Induction cAMP): 3.1
cAMP (pmol/well) ([2]; Table 1, 1000 nM, after 15 minutes): 0.07 ± 0.01 pmol/well
fold induction at 1 µM ([3]; Mus musculus, Neural stem cell, 96 h, read-out: Fold Induction ATP): 1.1
ATP (nM ATP/well) ([3]; Table 1, 1000 nM, 4 days in culture): 10.4 ± 2.4 nM ATP/well

CNC(=O)[C@H]1O[C@@H](n2cnc3c(N)ncnc32)[C@H](O)[C@@H]1O [MECA]
% Doublecortin-positive cells ([1]; 10 μM): 2.2%
Fold Induction (Doublecortin-positive cells) ([1]; 10 μM): 0.9 fold
cAMP (pmol/well) [2, 5]: 3.89 ± 1.00 pmol/well
Fold Induction cAMP ([2]; Table 2, 100 nM): 2.1* fold
ATP (nM ATP/well) ([3]; Table 2, 100 nM, 4 days): 7.4 ± 0.7 nM ATP/well
Fold Induction ATP ([3]; Table 2, 100 nM, 4 days): 1.6** fold

CC(C)C[C@H](NC(=O)[C@H](CCCCN)NC(=O)CNC(=O)[C@H](CC(C)C)NC(=O)[C@@H](NC(=O)[C@@H]1CSSC[C@H](N)C(=O)N[C@@H](CO)C(=O)N[C@@H](CC(N)=O)C(=O)N[C@@H](CC(C)C)C(=O)N[C@@H](CO)C(=O)N[C@@H]([C@@H](C)O)C(=O)N1)C(C)C)C(=O)N[C@@H](CO)C(=O)N[C@@H](CCC(N)=O)C(=O)N[C@@H](CCC(=O)O)C(=O)N[C@@H](CC(C)C)C(=O)N[C@@H](Cc1c[nH]cn1)C(=O)N[C@@H](CCCCN)C(=O)N[C@@H](CC(C)C)C(=O)N[C@@H](CCC(N)=O)C(=O)N[C@H](C(=O)N[C@@H](Cc1ccc(O)cc1)C(=O)N1CCC[C@H]1C(=O)N[C@@H](CCCNC(=N)N)C(=O)N[C@H](C(=O)N[C@@H](CC(N)=O)C(=O)N[C@H](C(=O)NCC(=O)N[C@@H](CO)C(=O)NCC(=O)N[C@H](C(=O)N1CCC[C@H]1C(N)=O)[C@@H](C)O)[C@@H](C)O)[C@@H](C)O)[C@@H](C)O [Thyrocalcitonin (Salmon)]
% Doublecortin-positive cells ([1]; 100 nM): 3.9%
Fold Induction (Doublecortin-positive cells) ([1]; 100 nM): 1.5 fold
cAMP (pmol/well) [2, 6]: 0.63 ± 0.23 pmol/well
Fold Induction cAMP ([2]; Table 2, 1 nM): 3.8* (1 nM) fold
ATP (nM ATP/well) ([3]; Table 2, 1 nM, 4 days): 9.2 ± 0.7 nM ATP/well
Fold Induction ATP ([3]; Table 2, 1 nM, 4 days): 1.3* fold

N=C(N)NCCC[C@@H](N)C(=O)N[C@@H](CCCNC(=N)N)C(=O)N1CCC[C@H]1C(=O)N1C[C@H](O)C[C@H]1C(=O)NCC(=O)N[C@H](C(=O)N[C@@H](CO)C(=O)N[C@@H](C(=O)N1[C@H](C(=O)N[C@@H](CCCNC(=N)N)C(=O)O)C[C@@H]2CCCC[C@@H]21)C1Cc2ccccc2C1)C1Cc2ccccc2C1 [[D-Arg0, Hyp3, Ig15, D-Ig17, Oic8]-Bradykinin]
% Doublecortin-positive cells ([1]; 100 nM): 3.6%
cAMP (pmol/well) [2, 4]: 0.17 ± 0.02 pmol/well
ATP (nM ATP/well) ([3]; Table 2, 100 nM, 4 days): 13.1 ± 2.1 nM ATP/well

CC(C)C[C@H](NC(=O)[C@@H](Cc1c[nH]c2ccccc12)NC(=O)[C@H](Cc1ccc(O)cc1)NC(=O)[C@H](CO)NC(=O)[C@@H](Cc1c[nH]c2ccccc12)NC(=O)[C@@H](Cc1ccccc1)NC(=O)[C@H]1CCC(=O)N1)C(=O)N[C@@H](CCCNC(=N)N)C(=O)N1CCC[C@H]1C(=O)NCC(N)=O [[D-pGlu1,D-Phe2, D-Trp3,6]-LH-RH] ([d(pGlu)][dF][dW]SY[dW]LRPG-NH2; C-terminus assumed)
% Doublecortin-positive cells ([1]; 100 nM): 3.4%
cAMP (pmol/well) [2, 6]: 0.07 ± 0.02 pmol/well
ATP (nM ATP/well) ([3]; Table 2, 100 nM, 4 days): 11.1 ± 0.4 nM ATP/well

N=C(N)NCCC[C@H](N)C(=O)N1CCC[C@H]1C(=O)N1CCC[C@H]1C(=O)NCC(=O)N[C@@H](Cc1ccccc1)C(=O)N[C@@H](CO)C(=O)N1CCC[C@H]1C(=O)N[C@@H](Cc1ccccc1)C(=O)O [[Des-Arg9]-Bradykinin]
% Doublecortin-positive cells ([1]; 100 nM): 4.5%
Fold Induction (Doublecortin-positive cells) ([1]; 100 nM): 1.8 fold
cAMP (pmol/well) [2, 6]: 0.06 ± 0.01 pmol/well
Fold Induction cAMP ([2]; Table 2, 1 nM): 1.7*** fold
ATP (nM ATP/well) ([3]; Table 2, 1 nM, 4 days): 10.4 ± 1.0 nM ATP/well
Fold Induction ATP ([3]; Table 2, 1 nM, 4 days): 1.2* fold

CC(C)C[C@H](NC(=O)CN(C)C(=O)[C@H](Cc1ccccc1)NC(=O)[C@H](Cc1ccccc1)NC(=O)[C@H](CCC(N)=O)NC(=O)[C@H](CCC(N)=O)NC(=O)[C@@H]1CCCN1C(=O)[C@H](CCCCN)NC(=O)[C@@H]1CCCN1C(=O)[C@@H](N)CCCNC(=N)N)C(=O)N[C@@H](CCS(C)(=O)=O)C(N)=O [[Sar9, Met (0)11]-Substance P]
cAMP (pmol/well) [2, 5]: 0.16 ± 0.05 pmol/well
ATP (nM ATP/well) ([3]; Table 2, 100 nM, 4 days): 39.7 ± 2.1 nM ATP/well

CC(C)C[C@H](NC(=O)[C@H](Cc1ccccc1)NC(=O)CNC(=O)CNC(=O)[C@@H](N)Cc1ccc(O)cc1)C(=O)N[C@@H](CCCNC(=N)N)C(=O)N[C@@H](CCCCN)C(=O)N[C@@H](Cc1ccc(O)cc1)C(=O)N1CCC[C@H]1C(=O)N[C@@H](CCCCN)C(=O)O [α-Neo-Endorphin] (H-YGGFLRKYPK-OH; N-terminus and C-terminus assumed)
% Doublecortin-positive cells ([1]; 100 nM): 4.0%
Fold Induction (Doublecortin-positive cells) ([1]; 100 nM): 1.6 fold
cAMP (pmol/well) [2, 6]: 0.36 ± 0.09 pmol/well
Fold Induction cAMP ([2]; Table 2, 1 nM): 1.7* (1 nM) fold
ATP (nM ATP/well) ([3]; Table 2, 100 nM, 4 days): 13.8 ± 2.1 nM ATP/well
Fold Induction ATP ([3]; Table 2, 100 nM, 4 days): 1.8** fold

CSCC[C@H](NC(=O)[C@H](CC(C)C)NC(=O)CNC(=O)[C@@H](NC(=O)[C@H](Cc1ccccc1)NC(=O)[C@H](CO)NC(=O)[C@H](CC(=O)O)NC(=O)[C@@H](NC(=O)[C@H](CCCCN)NC(=O)[C@@H](N)Cc1c[nH]cn1)[C@@H](C)O)C(C)C)C(N)=O [α-Neurokinin]
% Doublecortin-positive cells ([1]; 100 nM): 4.6%
cAMP (pmol/well) [2, 4]: 0.11 ± 0.03 pmol/well
ATP (nM ATP/well) ([3]; Table 2, 100 nM, 4 days): 11.0 ± 1.4 nM ATP/well

CSCC[C@H](NC(=O)[C@H](CCCNC(=N)N)NC(=O)[C@H](Cc1ccc(O)cc1)NC(=O)[C@@H]1CCCN1C(=O)CNC(=O)[C@H](CCC(=O)O)NC(=O)[C@H](CC(=O)O)NC(=O)[C@H](CCCCN)NC(=O)[C@H](CCCCN)NC(=O)[C@H](CCC(=O)O)NC(=O)[C@H](C)N)C(=O)N[C@@H](CCC(=O)O)C(=O)N[C@@H](Cc1c[nH]cn1)C(=O)N[C@@H](Cc1ccccc1)C(=O)N[C@@H](CCCNC(=N)N)C(=O)N[C@@H](Cc1c[nH]c2ccccc12)C(=O)NCC(=O)N[C@@H](CO)C(=O)N1CCC[C@H]1C(=O)N1CCC[C@H]1C(=O)N[C@@H](CCCCN)C(=O)N[C@@H](CC(=O)O)C(=O)O [β-MSH, β-Melanocyte Stimulating Hormone]
% Doublecortin-positive cells ([1]; 100 nM): 4.1%
cAMP (pmol/well) [2, 4]: 0.23 ± 0.02 pmol/well
ATP (nM ATP/well) ([3]; Table 2, 100 nM, 4 days): 13.6 ± 1.6 nM ATP/well
